This test concerns the target T1, tissue kallikrein (UniProt P00752).
T1 sequence (P00752 1-246): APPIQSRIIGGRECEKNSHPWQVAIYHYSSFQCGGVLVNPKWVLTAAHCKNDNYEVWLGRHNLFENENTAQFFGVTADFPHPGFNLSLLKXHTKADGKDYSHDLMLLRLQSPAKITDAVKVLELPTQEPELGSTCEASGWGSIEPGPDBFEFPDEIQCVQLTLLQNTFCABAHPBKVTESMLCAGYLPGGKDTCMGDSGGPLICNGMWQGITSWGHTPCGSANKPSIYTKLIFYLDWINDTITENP
Kind of test: Determination of inhibition constants (Ki) for tissue kallikrein. It counts as biochemical. To be noted: for Ki: literature method of Burton and Lowe, read-out: Ki, inhibition constant for tissue kallikrein. As for the experimental part:
Determination of Inhibition Constants (Ki) for Tissue Kallikrein
Inhibition constants of compounds 1, 2 and 3 for tissue kallikrein are determined according to the literature method described by Burton and Lowe. ^7 The results are listed in Table 4.

Molecules are shown by their SMILES.

As a reminder, the Ki is the dissociation constant of the complex between target and ligand, obtained from inhibition or displacement. As to `N=C(N)c1ccc(Nc2nc(Cl)nc(Cl)n2)cc1` [2-(4-amidinophenylamino)-4,6-dichloro-s-triazine, reference compound], the Ki was > 100 µM.

For the molecule `N=C(N)c1ccc(Nc2nc(Cl)nc(NCc3ccccc3)n2)cc1` [Compound 3], the inhibitory constant (Ki) is 5.2 µM. Besides, the “inhibition efficacy compared with the original template (1)” value (tissue kallikrein inhibition, comparison in words) was “approximately the same inhibition efficacy as that of the original template (1)”.

(Values after US20120129730A1, “GENERATION OF COMPOUND LIBRARIES UTILIZING MOLECULAR IMPRINTS INCLUDING A DOUBLE OR ANTI-IDIOTYPIC APPROACH” (KLAUS MOSBACH, priority 2001, published 2012).)
